Assay [1] concerns OCI-Ly10 human DLBCL cells. Description: OCI-Ly10 anti-proliferative activity (Resazurin). In kind it is cell-based. The following applies: OCI-Ly10 cells, 72 h compound treatment, Resazurin, read-out: Proliferation Assay OCI-Ly10-20% FBS. A digest of the protocol: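 OCI-Ly10 human DLBCL cells, whose growth depends on NFκB signalling, were seeded at 7.5×10^3 cells per well in 96-well plates with a range of compound concentrations and kept at 37° C for 72 h. Resazurin was then added, and after 5 h fluorescence was read at 590 nm.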
A general note: Resazurin is reduced to fluorescent resorufin, in cell work by metabolically active cells.

For assay [2], the target named is T1, Recombinant BTK^C481S kinase (Homo sapiens, UniProt Q06187, C481S).
T1 construct: purchased SignalChem
T1 sequence (Q06187 whole entry C481S): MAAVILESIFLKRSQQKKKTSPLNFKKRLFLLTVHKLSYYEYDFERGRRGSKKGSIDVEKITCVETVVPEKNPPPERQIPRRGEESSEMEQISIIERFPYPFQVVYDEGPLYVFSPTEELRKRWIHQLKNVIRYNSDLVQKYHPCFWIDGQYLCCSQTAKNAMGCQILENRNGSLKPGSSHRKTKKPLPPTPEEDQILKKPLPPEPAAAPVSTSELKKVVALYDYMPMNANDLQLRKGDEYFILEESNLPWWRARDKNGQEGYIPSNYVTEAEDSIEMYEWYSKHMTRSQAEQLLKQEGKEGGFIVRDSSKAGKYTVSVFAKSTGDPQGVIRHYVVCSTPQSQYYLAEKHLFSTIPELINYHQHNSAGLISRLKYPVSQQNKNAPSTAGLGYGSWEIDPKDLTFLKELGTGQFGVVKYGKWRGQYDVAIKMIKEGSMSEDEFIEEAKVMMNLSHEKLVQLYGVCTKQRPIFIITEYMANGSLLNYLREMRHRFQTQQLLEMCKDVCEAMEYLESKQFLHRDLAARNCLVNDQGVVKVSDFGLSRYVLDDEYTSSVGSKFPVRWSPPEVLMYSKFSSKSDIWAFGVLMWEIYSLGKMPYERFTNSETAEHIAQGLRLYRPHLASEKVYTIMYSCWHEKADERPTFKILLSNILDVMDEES
Description: BTK C481S binding affinity (LanthaScreen TR-FRET). The following applies: Kinase Tracer 236, 5 h incubation. A digest of the protocol: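 BTK C481S tracer-displacement TR-FRET: 5 nM His-tagged kinase, 2 nM Eu anti-His antibody and 30 nM Kinase Tracer 236 incubated with titrated inhibitor for 5 h in Kinase Buffer A. Read at 340 nm excitation, 615/665 nm emission; IC50 from variable-slope log[inhibitor]–response fit.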

The target in another assay is T2, Recombinant EGFR (Homo sapiens, UniProt P00533).
T2 construct: purchased Invitrogen
T2 sequence (P00533 25-1210): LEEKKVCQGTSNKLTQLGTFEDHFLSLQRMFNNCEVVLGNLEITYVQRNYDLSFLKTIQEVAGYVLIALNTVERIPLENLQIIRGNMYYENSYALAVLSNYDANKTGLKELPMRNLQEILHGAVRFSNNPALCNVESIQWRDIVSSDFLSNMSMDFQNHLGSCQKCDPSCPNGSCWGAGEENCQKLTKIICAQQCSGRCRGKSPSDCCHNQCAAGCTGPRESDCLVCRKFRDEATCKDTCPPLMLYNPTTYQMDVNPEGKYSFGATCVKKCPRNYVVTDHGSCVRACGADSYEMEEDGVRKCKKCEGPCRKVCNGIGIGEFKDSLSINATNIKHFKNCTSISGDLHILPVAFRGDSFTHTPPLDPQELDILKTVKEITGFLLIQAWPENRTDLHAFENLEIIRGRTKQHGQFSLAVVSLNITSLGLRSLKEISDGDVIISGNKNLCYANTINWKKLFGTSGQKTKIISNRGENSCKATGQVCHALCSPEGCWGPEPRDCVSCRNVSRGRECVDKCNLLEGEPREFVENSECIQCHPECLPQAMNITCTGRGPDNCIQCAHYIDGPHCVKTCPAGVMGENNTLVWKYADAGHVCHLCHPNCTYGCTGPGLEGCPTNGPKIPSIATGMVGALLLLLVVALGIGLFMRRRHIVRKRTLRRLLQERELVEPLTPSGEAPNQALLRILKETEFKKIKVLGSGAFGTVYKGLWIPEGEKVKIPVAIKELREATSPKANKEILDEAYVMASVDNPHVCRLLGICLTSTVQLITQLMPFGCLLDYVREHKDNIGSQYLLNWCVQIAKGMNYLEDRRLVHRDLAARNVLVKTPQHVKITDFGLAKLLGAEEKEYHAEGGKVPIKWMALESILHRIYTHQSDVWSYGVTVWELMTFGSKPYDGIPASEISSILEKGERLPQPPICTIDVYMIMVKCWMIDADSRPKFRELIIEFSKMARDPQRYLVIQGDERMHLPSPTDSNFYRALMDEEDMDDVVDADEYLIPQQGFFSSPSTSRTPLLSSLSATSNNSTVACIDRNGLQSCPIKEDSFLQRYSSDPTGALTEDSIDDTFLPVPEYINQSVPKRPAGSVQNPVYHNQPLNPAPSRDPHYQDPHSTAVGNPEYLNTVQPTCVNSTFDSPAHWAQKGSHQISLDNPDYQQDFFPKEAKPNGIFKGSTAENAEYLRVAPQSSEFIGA
Description: EGFR binding affinity (LanthaScreen TR-FRET). The settings on record: Kinase Tracer 199, 5 h incubation. The gist of the method: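 TR-FRET binding (LanthaScreen) with recombinant EGFR; signal measured across a compound concentration range. IC50 obtained by fitting RFU against log[inhibitor] to a variable-slope model.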
In general terms: TR-FRET usually uses a lanthanide donor and a delayed reading to cut background.

Assay [3] has as its target T3, Recombinant BTK^WT kinase (Homo sapiens, UniProt Q06187).
T3 construct: purchased Invitrogen
Briefly: BTK WT binding affinity (LanthaScreen TR-FRET). The following applies: Kinase Tracer 236, 5 h incubation. A digest of the protocol: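 Tracer-displacement TR-FRET: 2.5 nM recombinant BTK^WT, 2 nM Eu anti-His antibody and 15 nM Kinase Tracer 236 incubated with varying inhibitor concentrations for 5 h in Kinase Buffer A. Signal read at 340 nm excitation, 615/665 nm emission; IC50 from variable-slope log[inhibitor]–response fit.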

The structures appear in SMILES notation. Where two headings read alike, the source gives them in different places.

T3 sequence (Q06187 whole entry): as the sequence (Q06187 whole entry C481S) above, with S481C counted along it

Turning to `COc1ccc(F)cc1C(=O)NCc1ccc(-c2nn(C(C(C)C)C(F)(F)F)c(N)c2C(N)=O)cc1` (centres unmarked) [Example 180, 5-amino-3-[4-[[(5-fluoro-2-methoxy-benzoyl)amino]methyl]phenyl]-1-[2-methyl-1-(trifluoromethyl)propyl]pyrazole-4-carboxamide], the IC50 in assay [1] (Homo sapiens, OCI-Ly10, 72 h) is 10 to 100 nM; in assay [2], less than 10 nM; at Recombinant EGFR, 1000 to 10000 nM; in assay [3] it was less than 10 nM.
Turning to `COc1ccccc1C(=O)NCc1ccc(-c2nn(C3CCOCC3)c(N)c2C(N)=O)cc1F` [Example 116, 5-amino-3-[3-fluoro-4-[[(2-methoxybenzoyl)amino]methyl]phenyl]-1-tetrahydropyran-4-yl-pyrazole-4-carboxamide], the IC50 is 100 to 1000 nM in assay [1] (Homo sapiens, OCI-Ly10, 72 h); less than 10 nM in assay [2]; 1000 to 10000 nM on Recombinant EGFR; 10 to 100 nM in assay [3].
Turning to `COc1ccccc1C(=O)NCc1ccc(-c2nn(C(C(C)C)C(F)(F)F)c(N)c2C(N)=O)cc1` (centres unmarked) [Example 171, 5-amino-3-[4-[[(2-methoxybenzoyl)amino]methyl]phenyl]-1-[2-methyl-1-(trifluoromethyl)propyl]pyrazole-4-carboxamide], the IC50 is 100 to 1000 nM in assay [1] (Homo sapiens, OCI-Ly10, 72 h); less than 10 nM in assay [2]; 1000 to 10000 nM at Recombinant EGFR; 10 to 100 nM in assay [3].
For `COc1ccccc1C(=O)NCc1ccc(-c2nn(C3CCOCC3C)c(N)c2C(N)=O)cc1` (mixture of isomers) [Example 86, 5-amino-3-[4-[[(2-methoxybenzoyl)amino]methyl]phenyl]-1-(3-methyltetrahydropyran-4-yl)pyrazole-4-carboxamide], the IC50 in assay [1] (Homo sapiens, OCI-Ly10, 72 h) was 100 to 1000 nM; in assay [2], less than 10 nM; on Recombinant EGFR, 100 to 1000 nM; in assay [3] it was less than 10 nM.
On to `COc1ccc(F)cc1C(=O)NCc1ccc(-c2nn(C3CCOC3)c(N)c2C(N)=O)c(F)c1` (centres unmarked) [Example 105, 5-amino-3-[2-fluoro-4-[[(5-fluoro-2-methoxy-benzoyl)amino]methyl]phenyl]-1-tetrahydrofuran-3-yl-pyrazole-4-carboxamide], for which the IC50 is 100 to 1000 nM in assay [1] (Homo sapiens, OCI-Ly10, 72 h); less than 10 nM in assay [2]; 1000 to 10000 nM on Recombinant EGFR; 10 to 100 nM in assay [3].
Regarding `COc1ccccc1C(=O)NCC(O)c1ccc(-c2nn(C3CCCC3)c(N)c2C(N)=O)cc1C` (centres unmarked) [Example 187, 5-amino-1-cyclopentyl-3-[4-[1-hydroxy-2-[(2-methoxybenzoyl)amino]ethyl]-3-methyl-phenyl]pyrazole-4-carboxamide], the IC50 in assay [1] (Homo sapiens, OCI-Ly10, 72 h) lay within 100 to 1000 nM; in assay [2], 100 to 1000 nM; at Recombinant EGFR it was 1000 to 10000 nM; in assay [3], 100 to 1000 nM.
In the case of `COc1ccccc1C(=O)NCc1ccc(-c2nn(-c3ccc(F)cc3F)c(N)c2C(N)=O)cc1` [Example 15, 5-Amino-1-(2,4-difluorophenyl)-3-[4-[[(2-methoxybenzoyl)amino]methyl]phenyl]pyrazole-4-carboxamide], the IC50 in assay [1] (Homo sapiens, OCI-Ly10, 72 h) was 10 to 100 nM; in assay [2], less than 10 nM; on Recombinant EGFR, 1000 to 10000 nM; in assay [3], less than 10 nM.
For the compound `COc1ccc(F)cc1C(=O)NCc1ccc(-c2nn(CC(F)(F)F)c(N)c2C(N)=O)cc1` [Example 122, 5-amino-3-[4-[[(5-fluoro-2-methoxy-benzoyl)amino]methyl]phenyl]-1-(2,2,2-trifluoroethyl)pyrazole-4-carboxamide], the IC50 is 10 to 100 nM in assay [1] (Homo sapiens, OCI-Ly10, 72 h); less than 10 nM in assay [2]; 1000 to 10000 nM on Recombinant EGFR; less than 10 nM in assay [3].
Regarding `COc1ccccc1C(=O)NCc1ccc(-c2nn(C3COC(C)(C)C3)c(N)c2C(N)=O)cc1` (centres unmarked) [Example 147, 5-amino-1-(5,5-dimethyltetrahydrofuran-3-yl)-3-[4-[[(2-methoxybenzoyl)amino]methyl]phenyl]pyrazole-4-carboxamide], the IC50 in assay [1] (Homo sapiens, OCI-Ly10, 72 h) was 10 to 100 nM; in assay [2], less than 10 nM; on Recombinant EGFR, 1000 to 10000 nM; in assay [3], less than 10 nM.
Turning to `COc1ccccc1C(=O)NCc1ccc(-c2nn(C3CCC(OCc4ccccc4)CC3)c(N)c2C(N)=O)cc1` (mixture of isomers) [Example 28, 5-Amino-1-(4-benzyloxycyclohexyl)-3-[4-[[(2-methoxybenzoyl)amino]methyl]phenyl]pyrazole-4-carboxamide], the IC50 in assay [1] (Homo sapiens, OCI-Ly10, 72 h) is 10 to 100 nM; in assay [2] it was less than 10 nM; at Recombinant EGFR it was 100 to 1000 nM; in assay [3], less than 10 nM.
On to `COc1ccccc1C(=O)NCc1ccc(-c2nn(C3CCOC3)c(N)c2C(N)=O)c(F)c1` (centres unmarked) [Example 100, 5-amino-3-[2-fluoro-4-[[(2-methoxybenzoyl)amino]methyl]phenyl]-1-tetrahydrofuran-3-yl-pyrazole-4-carboxamide], for which the IC50 in assay [1] (Homo sapiens, OCI-Ly10, 72 h) was 100 to 1000 nM; in assay [2] it was less than 10 nM; on Recombinant EGFR, greater than 10000 nM; in assay [3], 10 to 100 nM.
Consider `CCOC(=O)C1CCCC(n2nc(-c3ccc(CNC(=O)c4ccccc4OC)cc3)c(C(N)=O)c2N)C1` (single isomer, unassigned) [Example 55, ethyl 3-[5-amino-4-carbamoyl-3-[4-[[(2-methoxybenzoyl)amino]methyl]phenyl]pyrazol-1-yl]cyclohexanecarboxylate], for which the IC50 in assay [1] was 10 to 100 nM; in assay [2], less than 10 nM; on Recombinant EGFR, 100 to 1000 nM; in assay [3], less than 10 nM.
Regarding `COc1ccccc1C(=O)NCc1ccc(-c2nn(C3CCOC(C(F)(F)F)C3)c(N)c2C(N)=O)cc1` (centres unmarked) [Example 111, 5-amino-3-[4-[[(2-methoxybenzoyl)amino]methyl]phenyl]-1-[2-(trifluoromethyl)tetrahydropyran-4-yl]pyrazole-4-carboxamide], the IC50 was 100 to 1000 nM in assay [1] (Homo sapiens, OCI-Ly10, 72 h); less than 10 nM in assay [2]; 100 to 1000 nM at Recombinant EGFR; less than 10 nM in assay [3].
As to `COc1ccc(F)cc1C(=O)NCc1cc(F)c(-c2nn(C3CCOC3)c(N)c2C(N)=O)cc1F` (centres unmarked) [Example 153, 5-amino-3-[2,5-difluoro-4-[[(5-fluoro-2-methoxy-benzoyl)amino]methyl]phenyl]-1-tetrahydrofuran-3-yl-pyrazole-4-carboxamide], the IC50 in assay [1] (Homo sapiens, OCI-Ly10, 72 h) is 100 to 1000 nM; in assay [2], less than 10 nM; at Recombinant EGFR, greater than 10000 nM; in assay [3], 10 to 100 nM.
On the same counts, the results for `COc1ccccc1C(=O)NCc1ccc(-c2nn(CC(F)(F)F)c(N)c2C(N)=O)c(F)c1` [Example 124, 5-amino-3-[2-fluoro-4-[[(2-methoxybenzoyl)amino]methyl]phenyl]-1-(2,2,2-trifluoroethyl)pyrazole-4-carboxamide] are 100 to 1000 nM, 10 to 100 nM, 1000 to 10000 nM and 10 to 100 nM.
For `COc1ccc(F)cc1C(=O)NCc1ccc(-c2nn(C(C3CCOCC3)C(F)(F)F)c(N)c2C(N)=O)cc1` (centres unmarked) [Example 184, 5-amino-3-[4-[[(5-fluoro-2-methoxy-benzoyl)amino]methyl]phenyl]-1-(2,2,2-trifluoro-1-tetrahydropyran-4-yl-ethyl)pyrazole-4-carboxamide], the IC50 in assay [1] (Homo sapiens, OCI-Ly10, 72 h) is less than 10 nM; in assay [2], less than 10 nM; at Recombinant EGFR, greater than 10000 nM; in assay [3], 10 to 100 nM.
`CNc1c(C(N)=O)c(-c2ccc(CNC(=O)c3ccccc3OC)cc2)nn1C1CCC1` [Example 87, 1-cyclobutyl-3-[4-[[(2-methoxybenzoyl)amino]methyl]phenyl]-5-(methylamino)pyrazole-4-carboxamide]: the IC50 in assay [1] (Homo sapiens, OCI-Ly10, 72 h) was 100 to 1000 nM; in assay [2], less than 10 nM; on Recombinant EGFR it was 100 to 1000 nM; in assay [3] it was less than 10 nM.
`COc1ccc(F)cc1C(=O)NCc1ccc(-c2nn(C3CCOC3)c(N)c2C(N)=O)cc1` (centres unmarked) [Example 114, 5-amino-3-[4-[[(5-fluoro-2-methoxy-benzoyl)amino]methyl]phenyl]-1-tetrahydrofuran-3-yl-pyrazole-4-carboxamide]: the IC50 was 10 to 100 nM in assay [1] (Homo sapiens, OCI-Ly10, 72 h); less than 10 nM in assay [2]; 1000 to 10000 nM at Recombinant EGFR; less than 10 nM in assay [3].
In the case of `COc1ccc(F)cc1C(=O)NCc1ccc(-c2nn([C@@H]3CCOC3)c(N)c2C(N)=O)cc1` [Example 164, 5-amino-3-[4-[[(5-fluoro-2-methoxy-benzoyl)amino]methyl]phenyl]-1-[(3R)-tetrahydrofuran-3-yl]pyrazole-4-carboxamide], the IC50 in assay [1] (Homo sapiens, OCI-Ly10, 72 h) is 10 to 100 nM; in assay [2], less than 10 nM; at Recombinant EGFR, 1000 to 10000 nM; in assay [3] it was less than 10 nM.
Regarding `COc1ccc(F)cc1C(=O)NCc1ccc(-c2nn(C3CCOCC3)c(N)c2C(N)=O)cc1` [Example 115, 5-amino-3-[4-[[(5-fluoro-2-methoxy-benzoyl)amino]methyl]phenyl]-1-tetrahydropyran-4-yl-pyrazole-4-carboxamide], the IC50 in assay [1] (Homo sapiens, OCI-Ly10, 72 h) is 10 to 100 nM; in assay [2], less than 10 nM; on Recombinant EGFR, 1000 to 10000 nM; in assay [3], less than 10 nM.

These data come from patent US11826351B2, “Compounds useful as kinase inhibitors” (Loxo Oncology, Inc., priority 2015, dated 2023).
